Legend:
human GSK3β = human GSK3β (Homo sapiens (Human), UniProt P49841); assay: pThr231 tau phosphorylation plate-based assay in HEK-huTau cells transfected with GSK3β; assay type: cell-based; settings: HEK-huTau cells transfected with human GSK3β; 10-point dose response, 2 hours; read-out: GSK3β IC50 (inhibition of pThr231)
Experimental: HEK293 or SH-SY5Y cells were obtained from American Type Culture Collection (ATCC, Manassas, VA) and cultured in Dulbecco's modified Eagle's medium (DMEM) supplemented with 10% fetal bovine serum (FBS), 10 units/ml penicillin, and 10 μg/ml streptomycin (all reagents were purchased from Gibco, Waltham, MA). Cell cultures were maintained in a humidified 5% (v/v) CO2/air environment at 37° C. When the cells reached 50-80% confluence, they were transfected with a complex consisting of a 3:1 ratio of FuGENE 6 Transfection Reagent (Promega, Madison, WI) and plasmid DNA. Plasmid DNA was balanced out across reactions using an empty plasmid so that the same amount of DNA was added per well. This transfection complex was prepared following the manufacturers protocol and added directly to the cell media for 24 or 48 hours prior to lysis.
293T cells stably expressing human 2N4R Tau were transfected with appropriate cDNA plasmids. 24 hours following transfection cells were treated with compound in a 10-point dose-response (from 1000× stocks of compound) and lysates harvested 2 hours later with cell extraction buffer (Life Technologies Cat #BN0001) or RIPA Buffer with Halt protease/phosphatase inhibitors added.
For pThr231 assay: Lysate was diluted 1:100 in assay buffer and Total Tau and pTau T231 was assessed by plate-based ELISA as per manufacturer instructions (MSD Cat #K15121D-1). Total fluorescence was measured using an Envison plate reader.
To test the potency and isoform selectivity of GSK3 small molecule inhibitors, HEK-huTau cells were transfected with plasmids containing either human GSK3α or GSK3β. Twenty-four hours after transfection, compounds were added at a 10-point dose response curve (at a range of 30 μM-3 nM) for a total of 2 hours, and cell lysates were probed for total tau and pThr231 using a plate-based assay.

[1] = system: β-catenin nuclear translocation in SH-SY5Y cells; assay: β-catenin translocation assay; assay type: cell-based; settings: HEK-huTau GSK3α vs SH-SY5Y β-catenin
Experimental: SH-SY5Y cells were seeded into a 96-well CellCarrier Ultra (Perkin Elmer) plate at a density of 1×10^5 cells/ml in complete DMEM. Sixteen hours following plating, media was changed to DMEM with 2% serum, and compound was added with a D300e Digital Dispenser (Tecan) for an incubation time of six hours. After compound incubation, media was removed, and cells were fixed with 4% PFA for 10 minutes at room temperature. Each well was washed three times with PBS-T and then blocked with buffer (1×PBS with 5% Normal Goat Serum and 0.3% Triton X-100) for 30 minutes at room temperature. β-Catenin primary antibody (Cell Signaling #8480) was added at 1:500 dilution in blocking buffer and the cells were allowed to incubate in primary overnight at 4° C. The following day, primary antibody was removed, each well was washed three times with PBS-T, and secondary antibody (1:2000 anti-rabbit AlexaFluor Plus 488 and 1:10,000 Hoechst 33342) was added and allowed to incubate for 60 minutes at room temperature protected from light. After one-hour, secondary antibody was removed and wells were washed four times with PBS-T before imaging on the Opera Phenix. Sixteen fields per well were imaged with a 20× water lens.
Images were quantified in the Columbus Image Data Storage and Analysis software. Cells were identified using the Hoechst nuclear stain to identify individual nuclei. Intensity of the nuclear stain was also used to determine cell viability (Viable cells <30% CV of Hoechst Intensity)

[2] = system: 251 unique detected kinases in rat brain; assay: In vivo kinome selectivity (chemoproteomics, kinobeads); settings: 60 mg/kg
Experimental: Chemoproteomics competition was used to evaluate inhibitor selectivity and target engagement in vivo. Frozen cortexes were prepared for homogenization with 1.2 mL of Lysis Buffer (50 mM Tris-HCl, 0.8% NP-40 ((octylphenoxy poly(ethyleneoxy) ethanol)), 5% glycerol, 150 mM NaCl, 1.5 mM MgCl2, 25 mM NaF, 1 mM sodium vanadate, 1 mM DTT, pH 7.5 and supplemented with protease inhibitors). Tissues were homogenized in FastPrep-24 5G instrument at maximum oscillations for 20 seconds. The resulting brain homogenate was clarified by centrifugation for 1 h at 145 000 g, 4° C. The protein concentration of the supernatant was determined by BCA assay and each sample was diluted to final concentration of 5 mg/mL with lysis buffer. […] The dry peptide mixture was reconstituted in 15 μL of 0.1% trifluoro acetic acid and analyzed on ID nanoLC-MS/MS platform using a standardized 140 min method. Peptides were separated on an Easy-Spray column (75 μm×50 cm, PepMAP C18, 1.9 μm) at 250 nL/min, analyzed on a QExactive HF mass spectrometer at data dependent acquisition (DDA) mode with MS1 at 60,000 and MS2 at 15,000 resolution, respectively. […]
To investigate whether the effects of 837646 on tau phosphorylation were solely the result of GSK3 inhibition, additional kinases detected by mass spectrometry for compound engagement in the same brain lysates were profiled. […]

Sequence of human GSK3β (P49841 whole entry): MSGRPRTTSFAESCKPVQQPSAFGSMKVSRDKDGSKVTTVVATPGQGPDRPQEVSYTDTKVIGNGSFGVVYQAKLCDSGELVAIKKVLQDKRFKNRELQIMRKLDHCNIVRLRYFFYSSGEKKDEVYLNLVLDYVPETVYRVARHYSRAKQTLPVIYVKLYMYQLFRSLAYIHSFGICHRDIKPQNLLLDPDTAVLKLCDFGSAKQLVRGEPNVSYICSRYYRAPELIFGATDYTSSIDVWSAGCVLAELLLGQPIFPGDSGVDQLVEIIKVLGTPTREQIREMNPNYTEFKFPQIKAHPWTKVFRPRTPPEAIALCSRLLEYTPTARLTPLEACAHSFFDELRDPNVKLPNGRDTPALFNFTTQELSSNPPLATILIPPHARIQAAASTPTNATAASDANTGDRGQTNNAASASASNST

CCC1(c2cccc(C(F)(F)F)c2)C2=C(Nc3n[nH]cc31)C(F)C(C)(C)CC2=O (single isomer, unassigned) [Compound 837646, 4-ethyl-8-fluoro-7,7-dimethyl-4-(3-(trifluoromethyl)phenyl)-2,4,6,7,8,9-hexahydro-5H-pyrazolo[3,4-b]quinolin-5-one]
IC50 (human GSK3β): 1 µM | window between potency on tau phosphorylation by GSK3α and concentrations affecting β-catenin stabilization [1]: > 20 fold | number of off-target kinases with target engagement greater than 70% ([2]; Cmax, of 251 unique kinases, apart from GSK3): 6 | number of kinases with target engagement greater than 70% (including GSK3α) ([2]; out of 251 unique detected kinases): 7
